# Values joined by “and” are separate entries in the source; they are usually repeats but may differ in a detail not shown here. Identical values can stand only once.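 48-hour exposure; five concentrations; linearly interpolated endpoints. GI50 = concentration required for 50% inhibition of growth. Definition used: TGI = concentration required for complete inhibition of growth.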
# Assays:
# Experiment in all cases: growth of human tumour cells (NCI), 48 h
# OVCAR-5 ovarian = tested on: OVCAR-5 ovarian
# ACHN renal = tested on: ACHN renal
# 786-0 renal = tested on: 786-0 renal
# NCI-H23 lung = tested on: NCI-H23 lung
# HL-60(TB) leukemia = tested on: HL-60(TB) leukemia
# MDA-MB-231 breast = tested on: MDA-MB-231 breast
# DU-145 prostate = tested on: DU-145 prostate
# UACC-257 melanoma = tested on: UACC-257 melanoma
# OVCAR-3 ovarian = tested on: OVCAR-3 ovarian
# BT-549 breast = tested on: BT-549 breast
SMILES,GI50 (OVCAR-5 ovarian),TGI (OVCAR-5 ovarian),GI50 (ACHN renal),TGI (ACHN renal),GI50 (786-0 renal),TGI (786-0 renal),GI50 (NCI-H23 lung),TGI (NCI-H23 lung),GI50 (HL-60(TB) leukemia),TGI (HL-60(TB) leukemia),GI50 (MDA-MB-231 breast),TGI (MDA-MB-231 breast),GI50 (DU-145 prostate),TGI (DU-145 prostate),GI50 (UACC-257 melanoma),TGI (UACC-257 melanoma),GI50 (OVCAR-3 ovarian),TGI (OVCAR-3 ovarian) [µM],GI50 (BT-549 breast) [µM],TGI (BT-549 breast) [µM]
O=C(OCc1ccccc1)N1CCN(/[N+]([O-])=N/Oc2ccc([N+](=O)[O-])cc2[N+](=O)[O-])CC1,6.43 µM,67.6 µM,7.12 µM,26.6 µM,2.45 µM,6.97 µM,6.45 µM,44.8 µM,18.8 µM,57.3 µM,3.58 µM,9.48 µM,5.56 µM,18.7 µM,19.5 µM,36.5 µM,3.01 µM,6.96,8.15,23.4
O=C(O)C1C(C(=O)Nc2ccc3c(c2)Cc2ccccc2-3)C2(Cl)C(Cl)=C(Cl)C1(Cl)C2(Cl)Cl (centres undefined),–,38.6 µM,–,> 100 µM,–,> 100 µM,–,31.3 µM,–,55.8 µM,–,41.6 µM,–,> 100 µM,–,48.2 µM,–,35.9,–,39.2
CCCCCC(O)C1C(=O)OC(C)C(O)/C=C/C=C/C=C/C=C\C=C(\C)C(O)CC(O)CC(O)CC(O)CC(O)CC(O)CC1O (centres undefined),> 100 µM,> 100 µM,> 100 µM,> 100 µM,> 100 µM,> 100 µM,> 100 µM,> 100 µM,> 100 µM,> 100 µM,> 100 µM,> 100 µM,> 100 µM,> 100 µM,> 100 µM,50 µM and > 100 µM,> 100 µM,> 100,> 100,> 100
CCN(CC)c1cc(/C=C/c2ccc(OC)c(OC)c2)nc2cc(F)c(F)cc12,20.3 µM,> 100 µM,2.56 µM,9.76 µM,1.98 µM,4.77 µM,4.06 µM,14 µM,12.2 µM,31.3 µM,2.3 µM,7.47 µM,31.6 µM,> 100 µM,15.2 µM,> 100 µM,5.54 µM,33.3,2.03,5.28
N#Cc1c(-c2ccc(Cl)cc2)n(O)c2ccccc12,4.08 µM,> 100 µM,3.68 µM,91.2 µM,2.24 µM,7.04 µM,2.02 µM,6.9 µM,1.76 µM,5.69 µM,1.51 µM,4.38 µM,3.75 µM,> 100 µM,2.27 µM,6.31 µM,2.6 µM,6.39,1.16,7.97
COc1ccc(Nn2c(SCC(=O)Nc3nc(-c4ccc(Cl)cc4)cs3)nc(C)c2C)cc1,> 100 µM,> 100 µM,2.27 µM,8.76 µM,3.46 µM,18.2 µM,1.53 µM,> 100 µM,2.24 µM,59.1 µM,8.37 µM,> 100 µM,4.06 µM,> 100 µM,2.97 µM,41.1 µM,3.13 µM,24.2,6.46,82
CCCCCCCC/C=C/CCCCCCCCC1=NCCN1CCO,10.8 µM,24 µM,2.6 µM,8.39 µM,5.49 µM,28 µM,10.9 µM,28.3 µM,2.45 µM,6.35 µM,1.99 µM,4.19 µM,7.28 µM,19.6 µM,11.8 µM,25 µM,11.5 µM,25.7,11.3,40.2
COc1ccc(NC(=O)n2nc(N)c3ccccc32)cc1OC,45.5 µM,> 100 µM,58.3 µM,> 100 µM,> 100 µM,> 100 µM,83.5 µM,> 100 µM,27.9 µM,> 100 µM,53.6 µM,> 100 µM,73.1 µM,> 100 µM,73.6 µM,> 100 µM,92 µM,> 100,25.9,> 100
CCC(C)n1cc(C)c2c(C(=O)NCc3c(C)cc(C)[nH]c3=O)cc(Br)cc21 (centres undefined),> 100 µM,> 100 µM,46.1 µM,> 100 µM,> 100 µM,> 100 µM,76.3 µM,> 100 µM,24.3 µM,58.4 µM,45 µM,> 100 µM,76.8 µM,> 100 µM,32.8 µM,> 100 µM,44.5 µM,> 100,41.8,> 100
NC(CSC(c1ccccc1)(c1ccccc1)c1ccc(Cl)cc1)C(=O)O (centres undefined),0.774 µM,> 63.9 µM,2.6 µM,> 78.4 µM,1.36 µM,30 µM,0.487 µM,41.9 µM,0.24 µM,0.724 µM,0.442 µM,35.8 µM,0.307 µM,0.863 µM,3.87 µM,> 78.7 µM,0.255 µM,3.37,0.324,15.8
COc1ccccc1-n1c(-c2cc(O)ccc2C)cn2c3c(=O)[nH]c(=O)n(C)c3nc12,28.1 µM,> 100 µM,1.99 µM,63.5 µM,6.24 µM,> 100 µM,60.9 µM,> 100 µM,> 100 µM,> 100 µM,3.06 µM,> 100 µM,7.04 µM,> 100 µM,> 100 µM,> 100 µM,4.28 µM,> 100,20.5,> 100
CC1/C=C/C=C/C=C/C=C/C=C/C=C/C=C/C(O[C@@H]2O[C@H](C)[C@H](O)[C@@H](O)[C@@H]2N)CC(O)C(C(=O)O)C(O)CC(=O)CC(O)CC(O)CC(O)CC(=O)CCCC(=O)CC(=O)OC1C(C)CC(C)C(O)CC(=O)c1ccc(N)cc1 (some centres undefined),0.0792 µM and 0.357 µM,0.216 µM and 1.3 µM,0.057 µM and 0.18 µM,0.106 µM and 0.319 µM,0.0591 µM and 0.172 µM,0.111 µM and 0.346 µM,0.055 µM and 0.187 µM,0.102 µM and 0.371 µM,0.0609 µM and 0.178 µM,0.145 µM and 0.396 µM,0.0613 µM and 0.3 µM,0.118 µM and 0.943 µM,0.0687 µM and 0.335 µM,0.148 µM and 1.06 µM,0.0544 µM and 0.233 µM,0.101 µM and 0.612 µM,0.0631 µM and 0.374 µM,–,0.213,0.444
CC(=O)OC1CC(n2cc(F)c(=O)[nH]c2=O)OC1CO (centres undefined),–,> 100 µM,–,> 77.8 µM,–,> 62.5 µM,–,77.1 µM,–,> 100 µM,–,> 100 µM,–,> 100 µM,–,> 100 µM,–,> 100,–,> 100
CC(C)CCOc1ccc(-c2n[nH]c(C(F)(F)F)c2-c2cncc(C#N)c2)c(O)c1,3.21 µM,> 100 µM,2.54 µM,9.02 µM,2.96 µM,13.1 µM,1.77 µM,7.59 µM,1.98 µM,5.47 µM,2.43 µM,6.43 µM,4.18 µM,46.3 µM,1.69 µM,5.54 µM,3.17 µM,16.3,2.57,9.51
CCNCC(=O)O[C@]1(CC)C(=O)OCc2c1cc1n(c2=O)Cc2cc3ccccc3nc2-1,–,13.2 µM,–,1.98 µM,–,1.05 µM,–,0.879 µM,–,0.849 µM,–,98 µM,–,1 µM,–,12.2 µM,–,15.9,–,26.7
C=C1C[C@](OC)([C@H](O)C(=O)N[C@@H](OC)[C@@H]2C[C@@H](O)C(C)(C)[C@@H](C[C@@H](COC)OC)O2)O[C@H](C)[C@@H]1C,0.00182 µM,0.00689 µM,0.00233 µM,0.0114 µM,0.0022 µM,0.0119 µM,0.00189 µM,0.00544 µM,0.00411 µM,> 1 µM,0.00286 µM,0.00837 µM,0.00145 µM,0.00496 µM,0.00211 µM,0.00885 µM,0.00117 µM,0.00368,0.00118,0.00326
CN1CCCNc2c(c(=O)c2=O)NCCCN(C)CCCNc2c(c(=O)c2=O)NCCCN(C)CCCNc2c(c(=O)c2=O)NCCCN(C)CCCNc2c(c(=O)c2=O)NCCCN(C)CCCNc2c(c(=O)c2=O)NCCCN(C)CCCNc2c(c(=O)c2=O)NCCCN(C)CCCNc2c(c(=O)c2=O)NCCC1,9.32 µM,20.6 µM,1.66 µM,6.87 µM,4.29 µM,15.1 µM,–,–,5.82 µM,32.4 µM,4.42 µM,19.1 µM,1.68 µM,5.9 µM,3.61 µM,27 µM,4.39 µM,15.1,5.69,19.8
CC(=O)c1ccc(NC(=O)CSc2nnc(-c3cc(-c4ccc(C)cc4)nc4ccccc34)o2)cc1,6.01 µM,> 100 µM,–,–,1.61 µM,3.51 µM,3.73 µM,61.3 µM,> 100 µM,> 100 µM,2.3 µM,5.47 µM,4.52 µM,> 100 µM,> 100 µM,> 100 µM,3.22 µM,> 100,2.44,7.89
CSc1cnn(CCC#N)c(=O)n1,–,> 100 µM,–,> 100 µM,–,> 100 µM,–,> 100 µM,–,> 100 µM,–,> 100 µM,–,> 100 µM,–,> 100 µM,–,–,–,> 100

# — PubChem BioAssay (NCI)
